ChEMBL document CHEMBL4699562, “Design, syntheses and evaluations of novel indole derivatives as orally selective estrogen receptor degraders (SERD)” (Bioorg Med Chem Lett, 2020)
pIC50: −log10 of the molar value. Activity calls are given as the source filed them. The rule behind the calls is not given here.

Legend:
[1] = Oral bioavailability in CD-1 mouse; type: ADME, organism-based; settings: in vivo
Estrogen receptor [2] = target: T1, Estrogen receptor (Homo sapiens, UniProt P03372); assay: Binding affinity to estrogen receptor (unknown origin)
T1 sequence (P03372 whole entry): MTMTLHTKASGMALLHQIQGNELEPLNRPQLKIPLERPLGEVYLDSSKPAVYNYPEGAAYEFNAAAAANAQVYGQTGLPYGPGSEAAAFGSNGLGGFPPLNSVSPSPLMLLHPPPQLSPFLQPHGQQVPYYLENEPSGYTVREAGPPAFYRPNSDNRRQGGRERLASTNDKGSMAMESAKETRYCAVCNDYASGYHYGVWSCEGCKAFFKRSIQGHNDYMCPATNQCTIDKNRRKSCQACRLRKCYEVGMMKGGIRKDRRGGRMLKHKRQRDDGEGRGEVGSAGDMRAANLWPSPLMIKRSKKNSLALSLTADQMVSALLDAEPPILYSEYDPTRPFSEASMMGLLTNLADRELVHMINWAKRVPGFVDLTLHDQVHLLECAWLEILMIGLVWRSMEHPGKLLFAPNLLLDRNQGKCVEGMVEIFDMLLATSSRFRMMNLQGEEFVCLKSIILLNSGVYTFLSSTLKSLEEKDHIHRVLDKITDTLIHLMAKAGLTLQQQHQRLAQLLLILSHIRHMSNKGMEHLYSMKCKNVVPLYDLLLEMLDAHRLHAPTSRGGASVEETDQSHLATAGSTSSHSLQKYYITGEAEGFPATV

[3] = Clearance in CD-1 mouse; type: ADME; settings: in vivo
[4] = target: Voltage-gated inwardly rectifying potassium channel KCNH2 (Homo sapiens, UniProt Q12809); assay: Inhibition of human ERG by automatic Q-patch assay
MCF7 [5] = assay: Antitumor activity against human MCF7 cells expressing ER xenografted in BALB/c mouse assessed as tumor growth inhibition at 20 mg/kg, po qd administered for 21 days and measured on day 19 relative to control; type: functional; settings: 456 h, time 19 day, read-out: TGI
MCF7 [6] = assay: Antitumor activity against human MCF7 cells expressing ER xenografted in BALB/c mouse assessed as tumor growth suppression at 20 mg/kg, po qd administered for 21 days; type: functional, organism-based; settings: time 21.0 day
Estrogen receptor [7] = target: T1, Estrogen receptor; assay: Induction of estrogen receptor degradation in human MCF7 cells; type: cell-based
MCF7 [8] = assay: Antiproliferative activity against human MCF7 cells assessed as cell growth inhibition; type: functional, cell-based
[9] = Volume of distribution in CD-1 mouse; type: ADME; settings: in vivo
[10] = AUC (0 to last) in CD-1 mouse at 2.5 mg/kg, po; type: ADME, organism-based; parameters: time 0 - last, route oral, dose 2.5 mg/kg; settings: in vivo

Chain of Voltage-gated inwardly rectifying potassium channel KCNH2 (Q12809 whole entry): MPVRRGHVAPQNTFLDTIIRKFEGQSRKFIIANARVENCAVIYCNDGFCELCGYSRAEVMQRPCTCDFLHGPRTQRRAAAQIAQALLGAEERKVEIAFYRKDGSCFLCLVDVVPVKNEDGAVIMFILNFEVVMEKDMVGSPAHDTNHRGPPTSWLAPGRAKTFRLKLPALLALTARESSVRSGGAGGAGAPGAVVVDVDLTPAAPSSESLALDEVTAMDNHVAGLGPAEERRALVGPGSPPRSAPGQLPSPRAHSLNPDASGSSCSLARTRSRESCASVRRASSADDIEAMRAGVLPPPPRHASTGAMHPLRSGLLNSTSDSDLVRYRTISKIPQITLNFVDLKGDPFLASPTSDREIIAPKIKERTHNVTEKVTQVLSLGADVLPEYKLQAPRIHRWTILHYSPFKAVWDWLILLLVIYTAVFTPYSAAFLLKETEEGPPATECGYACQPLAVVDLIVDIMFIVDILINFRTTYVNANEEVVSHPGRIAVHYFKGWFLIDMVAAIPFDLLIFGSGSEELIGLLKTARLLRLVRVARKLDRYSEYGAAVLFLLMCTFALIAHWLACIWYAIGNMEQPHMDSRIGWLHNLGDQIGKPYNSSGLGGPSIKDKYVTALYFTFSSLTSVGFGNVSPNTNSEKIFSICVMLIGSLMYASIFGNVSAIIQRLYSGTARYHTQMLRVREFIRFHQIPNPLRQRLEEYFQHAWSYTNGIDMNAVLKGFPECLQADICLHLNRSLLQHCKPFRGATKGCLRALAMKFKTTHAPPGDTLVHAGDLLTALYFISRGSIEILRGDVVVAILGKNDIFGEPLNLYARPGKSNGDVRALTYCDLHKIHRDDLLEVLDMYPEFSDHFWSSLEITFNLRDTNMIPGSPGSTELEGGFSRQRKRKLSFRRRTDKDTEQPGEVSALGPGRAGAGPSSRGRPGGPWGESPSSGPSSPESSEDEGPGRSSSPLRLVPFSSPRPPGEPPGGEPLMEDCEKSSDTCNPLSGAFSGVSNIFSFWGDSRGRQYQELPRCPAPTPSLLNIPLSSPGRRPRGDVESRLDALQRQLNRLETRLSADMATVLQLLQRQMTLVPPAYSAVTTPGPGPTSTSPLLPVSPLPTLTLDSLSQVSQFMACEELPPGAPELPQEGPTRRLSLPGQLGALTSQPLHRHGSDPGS

CC/C(=C(/c1ccc(/C=C/C(=O)O)cc1)c1cc2ccccc2[nH]1)c1ccccc1C(F)(F)F
bioavailability [1]: 25.7% | pIC50 (Estrogen receptor [2]): 9.06 | clearance [3]: 5.54 mL/min/kg | inhibition (INH) ([4]; human): Active | inhibition in vivo at 20 mg/kg (MCF7 [5]): 112% | inhibition (MCF7 [6]): Active | pIC50 (Estrogen receptor [7]): 8.40 | pIC50 (MCF7 [8]): 8.10 | Vd [9]: 1.12 L/kg | AUC(0-t) [10]: 4.21 µM·h

CC/C(=C(/c1ccc(/C=C/C(=O)O)cc1)c1cc2ccccc2[nH]1)c1cccc(C)c1
pIC50 (Estrogen receptor [2]): 8.84 | pIC50 (Estrogen receptor [7]): 7.16 | pIC50 (MCF7 [8]): 6.85

CC/C(=C(/c1ccc(/C=C/C(=O)O)cc1)c1cc2ccccc2[nH]1)c1cccc(OC(F)(F)F)c1
pIC50 (Estrogen receptor [2]): 8.33 | pIC50 (Estrogen receptor [7]): 7.17 | pIC50 (MCF7 [8]): 6.55

CC/C(=C(/c1ccc(/C=C/C(=O)O)cc1)c1cc2ccccc2[nH]1)c1ccc(Cl)c(C(F)(F)F)c1
pIC50 (Estrogen receptor [7]): 5.61 | pIC50 (MCF7 [8]): 5.66

CC/C(=C(/c1ccc(/C=C/C(=O)O)cc1)c1cc2ccccc2[nH]1)c1cccc(F)c1C#N
pIC50 (Estrogen receptor [2]): 9.77 | pIC50 (Estrogen receptor [7]): 7.31 | pIC50 (MCF7 [8]): 7.40

CC/C(=C(/c1ccc(/C=C/C(=O)O)cc1)c1cc2ccccc2[nH]1)c1ccc(Cl)cc1Cl
pIC50 (Estrogen receptor [2]): 8.82 | pIC50 (Estrogen receptor [7]): 8.05 | pIC50 (MCF7 [8]): 7.96

CC/C(=C(/c1ccc(/C=C/C(=O)O)cc1)c1cc2ccccc2[nH]1)c1ccccc1OC(F)(F)F
pIC50 (Estrogen receptor [2]): 8.62 | pIC50 (Estrogen receptor [7]): 7.03 | pIC50 (MCF7 [8]): 6.69

CC/C(=C(/c1ccc(/C=C/C(=O)O)cc1)c1cc2ccccc2[nH]1)c1cccc(Cl)c1Cl
pIC50 (Estrogen receptor [2]): 8.50 | pIC50 (Estrogen receptor [7]): 6.31 | pIC50 (MCF7 [8]): 6.05

CC/C(=C(/c1ccc(/C=C/C(=O)O)cc1)c1cc2ccccc2[nH]1)c1ccc(C(F)(F)F)cc1Cl
pIC50 (Estrogen receptor [2]): 9.01 | pIC50 (Estrogen receptor [7]): 8.22 | pIC50 (MCF7 [8]): 7.57

CC/C(=C(/c1ccc(/C=C/C(=O)O)cc1)c1cc2ccccc2[nH]1)c1ccc(C(F)(F)F)cc1
pIC50 (Estrogen receptor [7]): 6.79 | pIC50 (MCF7 [8]): 6.86

CC/C(=C(/c1ccc(/C=C/C(=O)O)cc1)c1cc2ccccc2[nH]1)c1c(C)cccc1Cl
pIC50 (Estrogen receptor [7]): 7.38 | pIC50 (MCF7 [8]): 7.52

CC/C(=C(/c1ccc(/C=C/C(=O)O)cc1)c1cc2ccccc2[nH]1)c1ccccc1C
pIC50 (Estrogen receptor [2]): 9.77 | pIC50 (Estrogen receptor [7]): 8.05 | pIC50 (MCF7 [8]): 7.48

CC/C(=C(/c1ccc(/C=C/C(=O)O)cc1)c1cc2ccccc2[nH]1)c1ccc(OC)cc1
pIC50 (Estrogen receptor [2]): 9.66 | pIC50 (Estrogen receptor [7]): 7.52 | pIC50 (MCF7 [8]): 7.21

CC/C(=C(/c1ccc(/C=C/C(=O)O)cc1)c1cc2ccccc2[nH]1)c1ccccc1
pIC50 (Estrogen receptor [2]): 9.55 | pIC50 (Estrogen receptor [7]): 7.18 | pIC50 (MCF7 [8]): 6.97

CC/C(=C(/c1ccc(/C=C/C(=O)O)cc1)c1cc2ccccc2[nH]1)c1ccc(Cl)cc1
pIC50 (Estrogen receptor [2]): 8.76 | pIC50 (Estrogen receptor [7]): 6.57 | pIC50 (MCF7 [8]): 6.46

CC/C(=C(/c1ccc(/C=C/C(=O)O)cc1)c1cc2ccccc2[nH]1)c1ccc(Cl)cc1C#N
pIC50 (Estrogen receptor [2]): 9.80 | pIC50 (Estrogen receptor [7]): 7.74 | pIC50 (MCF7 [8]): 7.85

CC/C(=C(/c1ccc(/C=C/C(=O)O)cc1)c1cc2ccccc2[nH]1)c1ccc(F)cc1Cl
pIC50 (Estrogen receptor [2]): 8.80 | pIC50 (Estrogen receptor [7]): 7.68 | pIC50 (MCF7 [8]): 7.41

CC/C(=C(/c1ccc(/C=C/C(=O)O)cc1)c1cc2ccccc2[nH]1)c1ccc(C#N)cc1
pIC50 (Estrogen receptor [7]): 6.14 | pIC50 (MCF7 [8]): 6.56

CC/C(=C(/c1ccc(/C=C/C(=O)O)cc1)c1cc2ccccc2[nH]1)c1cc(Cl)ccc1Cl
pIC50 (Estrogen receptor [2]): 8.85 | pIC50 (Estrogen receptor [7]): 7.60 | pIC50 (MCF7 [8]): 7.15

CC/C(=C(/c1ccc(/C=C/C(=O)O)cc1)c1cc2ccccc2[nH]1)c1ccccc1C#N
pIC50 (Estrogen receptor [2]): 9.62 | pIC50 (Estrogen receptor [7]): 8.05 | pIC50 (MCF7 [8]): 8.05

CC/C(=C(/c1ccc(/C=C/C(=O)O)cc1)c1cc2ccccc2[nH]1)c1ccc(Cl)c(C)c1
pIC50 (Estrogen receptor [7]): 5.86 | pIC50 (MCF7 [8]): 6.08

CC/C(=C(/c1ccc(/C=C/C(=O)O)cc1)c1cc2ccccc2[nH]1)c1ccc(C#N)cc1Cl
pIC50 (Estrogen receptor [2]): 9.77 | pIC50 (Estrogen receptor [7]): 7.51 | pIC50 (MCF7 [8]): 7.31

CC/C(=C(/c1ccc(/C=C/C(=O)O)cc1)c1cc2ccccc2[nH]1)c1ccccc1Cl
pIC50 (Estrogen receptor [2]): 9.36 | pIC50 (Estrogen receptor [7]): 7.54 | pIC50 (MCF7 [8]): 7.38

CC/C(=C(/c1ccc(/C=C/C(=O)O)cc1)c1cc2ccccc2[nH]1)c1cccc(C(F)(F)F)c1
pIC50 (Estrogen receptor [2]): 8.76 | pIC50 (Estrogen receptor [7]): 6.88 | pIC50 (MCF7 [8]): 6.49

CC/C(=C(/c1ccc(/C=C/C(=O)O)cc1)c1cc2ccccc2[nH]1)c1ccc(Cl)cc1C(F)(F)F
bioavailability [1]: 52.4% | pIC50 (Estrogen receptor [2]): 9.12 | clearance [3]: 6.86 mL/min/kg | pIC50 [4]: < 4.52 | inhibition in vivo at 20 mg/kg (MCF7 [5]): 117% | inhibition (MCF7 [6]): Active | pIC50 (Estrogen receptor [7]): 8.70 | pIC50 (MCF7 [8]): 8.40 | Vd [9]: 1.6 L/kg | AUC(0-t) [10]: 6.36 µM·h

C[C@@H]1Cc2c([nH]c3ccccc23)[C@@H](c2c(F)cc(/C=C/C(=O)O)cc2F)N1CC(C)(C)F [AZD-9496]
pIC50 (MCF7 [8]): 9.31
